Entries after “also recorded” stand apart in the source; their conditions may differ.
Experiments:
[1] = system: p210^bcr-abl kinase; experiment: Immunoprecipitation kinase assay of p210bcr-abl (autophosphorylation), ODN added to kinase reaction; format: biochemical, human; settings: for inhibition of p210^bcr-abl kinase activity in vitro (in words): ODN at 1 μM added to the immunoprecipitated enzyme
Procedure: The p210^bcr-abl kinase, src kinase and cdc-2 kinase were immunoprecipitated from K562 cells. The p145^abl kinase was immunoprecipitated from PC3M cells, PDGF receptor kinase from 3T3 cells, and EGF receptor kinase from A431 cells. MAP kinase was utilized as a pure protein and lck kinase was immunoprecipitated from peripheral blood lymphocytes of a normal volunteer.
Cells were washed in phosphate buffered saline (PBS) and 0.5-5×10^6 cells were solubilized in 1 ml of the specified cell lysis buffers. Unless otherwise stated, all cell lysis buffers contained the following protease inhibitors: 20 μg/ml leupeptin, 1 μg/ml aprotinin, and 1 mM phenylmethylsulfonylfluroide. For p210^bcr-abl and […] immunoprecipitation, cells were lysed with ABL lysis buffer (25 mM imidazole, pH 7.2, 0.5% NP40, 50 mM NaCl, 1 mM Na3 VO4) and lysates were clarified at 14,000 g. 4° C. for 30 minutes. Cell lysis for all other proteins was performed according to the references describing the various immunoprecipitation kinase assays.
(§1) Immunoprecipitation kinase assays of p210^bcr-abl p145^abl were performed as described, with modifications (15). Briefly, for p210^bcr-abl, 1 μg of anti-bcr antibody (clone 7C6, Oncogene Science, Uniondale, N.Y.) was added to lysates prepared from 0.5-1×10^6 K562 cells. For p145^abl, 1 μg of anti-c-abl antibody (clone 24-21), which binds to the C-terminal domain of p145^abl, was added to lysates prepared from 5×10^6 PC3M cells. After incubating 1 hour at 4° C., complexes were precipitated by incubating with protein A-Sepharose coated with rabbit anti-mouse immunoglobulin (Cappel Research Products, Durham, N.C.) for 30 minutes. The complexes were then washed as follows: ABL lysis buffer×2, PBS×1, and ABL assay buffer×1 (24 mM imidazole, pH 7.2, 1 mg/ml bovine serum albumin, and 10 mM MnCl). For p145^abl assays ABL assay buffer contained 20 mM MnCl. To access the activity of p210^bcr-abl on substrate phosphorylation, acid inactivated enolase (Sigma Chemical Co., St. Louis, Mo.) was added as described (15).
(§2) ODNs were added to kinase reaction buffers not more than 5 minutes prior to the addition of ATP. Reactions were initiated by the addition of [γ^-32 P] ATP (3000 Ci/mmole; Amersham Corp., Arlington Heights, Ill.) and quenched by the addition of 5× gel loading buffer and heating to 95° C. Kinase reactions were run for 1-10 minutes at room temperature, except for EGFR, p145^abl, and MAP kinase, which were run at 30° C. The products were then electrophoresed on SDS-polyacrylamide gels: 7% for p210^bcr-abl, EGFR, and PDGFR, 8% for p145^abl, 10% for src, lck, and cdc-2 kinase, and 12% for MAP kinase. Gels were dried and reaction products were visualized by direct autoradiography at -70° C. with Kodak X-OMAT AR film. To determine the inhibitory concentration 50, i.e., the concentration required to inhibit enzyme activity by 50% (IC50) and Ki values, gel slices containing the band of interest were excised and analyzed by Cerenkov counting.

[2] = system: p210^bcr-abl kinase in K562 cells; experiment: Immunoprecipitation kinase assay of p210bcr-abl from ODN treated K562 cells; format: cell-based, human; settings: K562 cells incubated 3 days with 50 μM ODN, washed
Procedure: as §1, §2
The effects of ODN1 on a cellular system were assessed. […] After 3 days, cells were washed and p210^bcr-abl kinase activity was measured. […] Neither cellular p210^bcr-abl protein content nor cell growth was affected by ODN treatment (data not shown).

[3] = system: cellular phosphotyrosine content of K562 cells; experiment: Western analysis of total cellular phosphotyrosine content after electroporation of K562 cells; format: cell-based, human; settings: K562 cells electroporated with 100 μM ODN, one hour later
Procedure: One hundred micrograms of protein from cell lysates were separated on a 7% SDS polyacrylamide gel. Transfer was performed overnight at 50 volts, 4° C., in a 0.2 M glycine, 25 mM Tris, pH 8.3, 0.15% SDS, 20% methanol buffer, onto […] nitrocellulose (Schleicher and Schuell Inc.). For cellular phosphotyrosine blots, Western probing was performed as described previously, with modifications (SARTOR, et al, 1991). Briefly, membranes were blocked for 2 hours with 5% albumin in TTBS (20 mM Tris HCL, pH 7.6; 0.05% Tween 20; 0.9% sodium chloride), probed for 1 hour with antiphosphotyrosine antibody (Upstate Biotechnology Inc., Lake Placid, N.Y.) diluted 1:500 in TTBS, followed by rabbit anti-mouse antibody (Cappel Research Products) and then [^125 I] protein A Sepharose (Amersham Corp., Arlington Heights, Ill.). Membranes were exposed to Kodak X-OMAT AR film overnight at -70° C. with intensifying screens.
(§3) Electroporation was performed as described (40). Briefly, 1-5×10^6 cells in 1 ml of RPMI 1640 with 10% fetal calf serum were placed into 0.4 cm gap electroporation chambers and electroporated with a Cell-Porator Electroporation System 1 (all from GIBCO BRL, Grand Island, N.Y.) at 800 microfarrads, 300 volts, at room temperature. Cells were then incubated at 37° C. for 1 hour before manipulation.
In K562 cells p210^bcr-abl is a major kinase responsible for protein tyrosine phosphorylation (38, 39). Changes in enzyme activity are therefore reflected by changes in cellular phosphotyrosine content.

[4] = system: p210^bcr-abl protein level in K562 cells; experiment: Western analysis of p210bcr-abl protein level in ODN treated K562 cells; format: cell-based, human; settings: one hour after electroporation with 100 μM ODN
Procedure: For p210^bcr-abl Western analysis, probing was carried out with the ECL Western blotting kit (Amersham) according to manufacturer's instructions. Briefly, membranes were blocked in 5% non-fat dry milk in TTBS for 1 hour, incubated with anti-p210^bcr-abl antibody (clone 8E9, Pharmingen, San Diego, Calif.) diluted 1:500 in TTBS for 1 hour, with sheep anti-mouse horseradish peroxidase-linked antibody (diluted 1:1000) for 1 hour, and lastly incubated in a luminol based detection solution for 1 minute. Membranes were exposed to Kodak X-OMAT AR film for various time periods.
as §3

## 5'-GTCCACCATGGCGCGGCCGGC-3' [ODN1] (phosphorothioate caps, further chemistry not given here) [21mer ODN complementary to nucleotides -12 to +9 of the p210bcr-abl mRNA, phosphorothioate capped unless otherwise specified]
[1]; 1 μM BCR-AS, lower concentrations of enolase, three minute reaction
  p210^bcr-abl autophosphorylation in the presence of enolase: only a slight effect
[1]; 1 μM ODN1
  nature of the enzymatic inhibition with respect to ATP: purely noncompetitive
[1]; Cerenkov counting of excised gel slices, mean ± SD
  IC50: 520 ± 120 nM
[1]; ODN 1 μM, phosphorothioate capped, mean ± SE of three experiments
  Percent Remaining Activity of p210^bcr-abl kinase relative to control: 36 ± 1.2%
[1]
  inhibition of p210^bcr-abl kinase activity in vitro (in words): markedly inhibited
[1]; listed as ODN1 phosphorothioate capped
  inhibition of p210^bcr-abl kinase activity in vitro (in words): intermediate potencies
[1]; various [γ-32P]ATP concentrations, presence or absence of 1 μM ODN1, double-reciprocal plot
  Ki: 520 ± 120 nM
[2]
  p210^bcr-abl kinase activity of ODN treated K562 cells: significantly decreased
[2]; listed as BCR-AS
  p210^bcr-abl kinase activity of ODN treated K562 cells: reduction
[3]; listed as BCR-AS
  total cellular protein phosphotyrosine content: dropped significantly; also recorded: reduced protein phosphotyrosine content
[3]; listed as BCR-AS phosphorothioate capped
  total cellular protein phosphotyrosine content: equally effective
[4]
  p210^bcr-abl protein level: no decrement
